In patent US12006330B2, “Substituted macrocyclic compounds and related methods of treatment” (Alkermes, Inc., priority 2020, dated 2024):

Molecular target: T1, human orexin-2 receptor (OX2R) (Homo sapiens, UniProt O43614)
T1 construct: expressed in transfected cells
T1 sequence (O43614 1-444): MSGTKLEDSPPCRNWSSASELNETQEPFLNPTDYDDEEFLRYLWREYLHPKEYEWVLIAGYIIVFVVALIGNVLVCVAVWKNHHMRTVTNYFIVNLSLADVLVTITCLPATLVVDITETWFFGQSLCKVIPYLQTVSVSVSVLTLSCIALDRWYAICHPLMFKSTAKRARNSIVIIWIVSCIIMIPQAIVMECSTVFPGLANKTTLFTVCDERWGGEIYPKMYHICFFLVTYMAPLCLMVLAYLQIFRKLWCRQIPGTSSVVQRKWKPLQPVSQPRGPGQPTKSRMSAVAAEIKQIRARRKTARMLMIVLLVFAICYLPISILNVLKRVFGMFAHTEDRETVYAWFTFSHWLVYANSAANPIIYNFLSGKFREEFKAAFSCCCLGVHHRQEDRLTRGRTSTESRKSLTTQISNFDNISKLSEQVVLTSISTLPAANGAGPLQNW
Experiment: Human OX2R IP1 assay
Assay type: cell-based
Settings: T-Rex CHO cells stably overexpressing human OX2R; IP1 accumulation; 1 hr at 37 degrees C; mean EC50
Protocol: T-Rex CHO cells stably overexpressing the human orexin-2 receptor (OX2R) were induced overnight with 1 μg/mL of doxycycline in a T225 flask. 24 hours post induction, cells were lifted with accutase and plated into a 384-well proxy plate at 30,000 cells/well. Cells were then treated with different test compounds in 1× stimulation buffer containing 10 mM Hepes, 1 mM CaCl2), 0.5 mM MgCl2, 4.2 mM KCl, 146 mM NaCl, 5.5 mM glucose, and 50 mM LiCl, pH 7.4, for 1 hr at 37 degrees C. Following incubation, the reaction was terminated by the addition of detection mix, which is composed of IP1-d2 and anti-IP1-cryptate diluted in lysis buffer as well as 1× stimulation buffer. The plates were allowed to incubate for 1 hour at room temperature and were then read in the EnVision® multimode plate reader, measuring inositol phosphate levels.
Cisbio IP1 is a cell-based functional assay quantifying the accumulation of inositol monophosphate (IP), a metabolite released as a result of orexin 2 receptor activation through the phospholipase C-Gq signaling pathway. This is a competitive immunoassay in which the IP1 produced by the cells upon receptor activation competes with the IP1 analog coupled to the d2 fluorophore (acceptor) for binding to an anti-IP1 monoclonal antibody labeled with Eu cryptate (donor). The measured HTRF-FRET based signal is inversely proportional to the IP1 concentration produced.
The EC50 values reported in Table 2 were obtained according to the human OX2R IP1 assay described above. Data are the mean EC50 values S.E.M. Reference Compound A is methyl (2R,3S)-3-((methylsulfonyl)amino)-2-(((cis-4-phenylcyclohexyl)oxy)methyl)-piperidine-1-carboxylate (Example 5 of PCT publication No. WO2017/135306). Reference Compound B is N-((2S,3S)-1-(2-hydroxy-2-methylpropanoyl)-2-((2,3′,5′-trifluorobiphenyl-3-yl)methyl)pyrrolidin-3-yl)methanesulfonamide (Example 483 of PCT publication No. WO2019/027058).

EC50 [nM] | SMILES
< 10 | O=C1COc2ccccc2[C@H]2CC[C@H](CC2)OC[C@H]2[C@@H](NS(=O)(=O)C3COC3)CCN12 (stereo in doubt) [Compound 110]
10 to 1000 | Cc1ncnc2c1[C@H]1CC[C@H](CC1)OC[C@H]1[C@@H](NS(=O)(=O)C3CC3)CCN1C(=O)CO2 (stereo in doubt) [Compound 83]
< 10 | O=C1COc2ccccc2[C@H]2CC[C@H](CC2)OC[C@H]2[C@@H](NS(=O)(=O)C3CC3)CCCN12 (stereo in doubt) [Compound 1]
< 10 | Cc1cccc2c1[C@H]1CC[C@H](CC1)OC[C@H]1[C@@H](NS(=O)(=O)C3CC3)CCN1C(=O)CO2 (stereo in doubt) [Compound 70]
10 to 1000 | O=C1COc2ccccc2[C@H]2CC[C@H](CC2)OC[C@H]2[C@@H](NS(=O)(=O)CC3CCC3)CCCN12 (stereo in doubt) [Compound 43]
< 10 | Cc1ccc2c(c1)[C@H]1CC[C@H](CC1)OC[C@H]1[C@@H](NS(C)(=O)=O)CCCN1C(=O)CO2 (stereo in doubt) [Compound 17]
< 10 | O=C1COc2ccccc2[C@H]2CC[C@H](CC2)OC[C@H]2[C@@H](NS(=O)(=O)C3COC3)CCCN12 (stereo in doubt) [Compound 80]
< 10 | Cc1cccc2c1[C@H]1CC[C@H](CC1)OC[C@H]1[C@@H](NS(=O)(=O)C(C)C)CCCN1C(=O)CO2 (stereo in doubt) [Compound 9]
< 10 | CS(=O)(=O)N[C@H]1CCCN2C(=O)COc3ccc(O)cc3[C@H]3CC[C@H](CC3)OC[C@@H]12 (stereo in doubt) [Compound 96]
< 10 | C=CS(=O)(=O)N[C@H]1CCCN2C(=O)COc3ccccc3[C@H]3CC[C@H](CC3)OC[C@@H]12 (stereo in doubt) [Compound 5]
< 10 | Cc1c(Cl)ccc2c1[C@H]1CC[C@H](CC1)OC[C@H]1[C@@H](NS(=O)(=O)C3CC3)CCCN1C(=O)CO2 (stereo in doubt) [Compound 75]
< 10 | O=C1COc2nccnc2[C@H]2CC[C@H](CC2)OC[C@H]2[C@@H](NS(=O)(=O)C3CC3)CCCN12 (stereo in doubt) [Compound 65]
10 to 1000 | Cc1ccc2c(c1)OCC(=O)N1CCC[C@H](NS(C)(=O)=O)[C@@H]1CO[C@H]1CC[C@@H]2CC1 (stereo in doubt) [Compound 40]
10 to 1000 | O=S(=O)(N[C@H]1CCCN2CCOc3ccccc3[C@H]3CC[C@H](CC3)OC[C@@H]12)C1CC1 (stereo in doubt) [Compound 51]
< 10 | O=C1COc2ccc(Cl)cc2[C@H]2CC[C@H](CC2)OC[C@H]2[C@@H](NS(=O)(=O)C3CC3)CCCN12 (stereo in doubt) [Compound 16]
> 1000 | O=S(=O)(N[C@H]1CCCN2CCOc3ncccc3[C@H]3CC[C@H](CC3)OC[C@@H]12)C1CC1 (stereo in doubt) [Compound 63]

EC50 [nM] | SMILES
< 10 | Cc1ccnc2c1[C@H]1CC[C@H](CC1)OC[C@H]1[C@@H](NS(=O)(=O)C3COC3)CCCN1C(=O)CO2 (stereo in doubt) [Compound 88]
< 10 | Cc1ncnc2c1[C@H]1CC[C@H](CC1)OC[C@H]1[C@@H](NS(=O)(=O)C3CC3)CCCN1C(=O)CO2 (stereo in doubt) [Compound 68]
< 10 | CC(C)S(=O)(=O)N[C@H]1CCCN2C(=O)COc3nccnc3[C@H]3CC[C@H](CC3)OC[C@@H]12 (stereo in doubt) [Compound 66]
< 10 | O=C1COc2ncccc2[C@H]2CC[C@H](CC2)OC[C@H]2[C@@H](NS(=O)(=O)C3CC3)CCCN12 (stereo in doubt) [Compound 14]
< 10 | Cc1ccnc2c1[C@H]1CC[C@H](CC1)OC[C@H]1[C@@H](NS(=O)(=O)C(C)C)CCN1C(=O)CO2 (stereo in doubt) [Compound 93]
> 1000 | CC(C)S(=O)(=O)N[C@H]1CCCN2CCOc3ccccc3[C@H]3CC[C@H](CC3)OC[C@@H]12 (stereo in doubt) [Compound 52]
< 10 | CC(C)S(=O)(=O)N[C@H]1CCCN2C(=O)COc3ncc(Cl)cc3[C@H]3CC[C@H](CC3)OC[C@@H]12 (stereo in doubt) [Compound 35]
< 10 | CC1(S(=O)(=O)N[C@H]2CCCN3C(=O)COc4ccccc4[C@H]4CC[C@H](CC4)OC[C@@H]23)CC1 (stereo in doubt) [Compound 8]
< 10 | Cc1ccc2c(c1)[C@H]1CC[C@H](CC1)OC[C@H]1[C@@H](NS(=O)(=O)C3CC3)CCCN1C(=O)CO2 (stereo in doubt) [Compound 13]
< 10 | Cc1ccc2c(c1C)[C@H]1CC[C@H](CC1)OC[C@H]1[C@@H](NS(=O)(=O)C(C)C)CCCN1C(=O)CO2 (stereo in doubt) [Compound 76]
< 10 | Cc1cccc2c1OCC(=O)N1CCC[C@H](NS(C)(=O)=O)[C@@H]1CO[C@H]1CC[C@@H]2CC1 (stereo in doubt) [Compound 37]
< 10 | CC(C)S(=O)(=O)N[C@H]1CCCN2C(=O)COc3ccccc3[C@H]3CC[C@H](CC3)OC[C@@H]12 (stereo in doubt) [Compound 3]
< 10 | CN(C)CCS(=O)(=O)N[C@H]1CCCN2C(=O)COc3ccccc3[C@H]3CC[C@H](CC3)OC[C@@H]12 (stereo in doubt) [Compound 39]
< 10 | Cc1ccc2c(c1C)[C@H]1CC[C@H](CC1)OC[C@H]1[C@@H](NS(C)(=O)=O)CCCN1C(=O)CO2 (stereo in doubt) [Compound 78]
< 10 | O=C1COc2ccccc2[C@H]2CC[C@H](CC2)OC[C@H]2[C@@H](NS(=O)(=O)CF)CCCN12 (stereo in doubt) [Compound 6]
